Measurements from patent publication US9290451B2 (Hoffmann-La Roche Inc., priority 2011, dated 2016).

How the values were obtained:
human CB1 receptors = human CB1 receptors (Homo sapiens (Human), UniProt P21554); experiment: cAMP assay, CHO cells expressing human CB1 receptors; type: cell-based; details: CHO cells expressing human CB1, cAMP; read-out: human CB1 EC50
Procedure, shortened: (§1)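 Agonist EC50 values come from cAMP levels measured in intact CHO cells. Compounds act for 30 min at 30 °C in the presence of 1 mM IBMX, and cAMP is then detected by time-resolved energy transfer after lysis.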

human CB2 receptors = human CB2 receptors (Homo sapiens (Human), UniProt P34972); experiment: cAMP assay, CHO cells expressing human CB2 receptors; type: cell-based; details: CHO cells expressing human CB2, cAMP; read-out: human CB2 EC50
Procedure, shortened: as §1

Sequence of human CB1 receptors (P21554 whole entry): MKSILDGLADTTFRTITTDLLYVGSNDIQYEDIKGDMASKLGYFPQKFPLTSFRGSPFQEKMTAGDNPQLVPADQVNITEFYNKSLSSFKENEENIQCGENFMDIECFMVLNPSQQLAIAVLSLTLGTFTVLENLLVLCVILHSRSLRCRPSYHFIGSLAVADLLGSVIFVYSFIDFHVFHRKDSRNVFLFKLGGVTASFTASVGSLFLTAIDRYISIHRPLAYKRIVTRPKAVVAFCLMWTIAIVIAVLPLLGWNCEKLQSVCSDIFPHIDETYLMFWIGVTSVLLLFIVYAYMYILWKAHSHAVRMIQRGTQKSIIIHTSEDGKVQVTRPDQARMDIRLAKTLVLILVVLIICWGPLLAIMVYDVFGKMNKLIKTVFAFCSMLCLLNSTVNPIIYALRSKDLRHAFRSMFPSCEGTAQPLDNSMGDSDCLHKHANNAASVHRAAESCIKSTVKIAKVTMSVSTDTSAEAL
Sequence of human CB2 receptors (P34972 whole entry): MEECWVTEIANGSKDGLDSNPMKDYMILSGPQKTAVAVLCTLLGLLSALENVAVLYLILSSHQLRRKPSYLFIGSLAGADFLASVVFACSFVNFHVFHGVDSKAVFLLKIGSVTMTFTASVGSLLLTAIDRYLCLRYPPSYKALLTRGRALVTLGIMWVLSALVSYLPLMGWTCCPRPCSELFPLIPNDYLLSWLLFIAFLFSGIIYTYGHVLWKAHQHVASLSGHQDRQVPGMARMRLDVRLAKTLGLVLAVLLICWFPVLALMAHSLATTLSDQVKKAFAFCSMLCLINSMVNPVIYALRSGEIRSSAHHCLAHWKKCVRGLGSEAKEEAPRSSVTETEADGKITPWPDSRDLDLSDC

Structure (SMILES)	EC50 (human CB1 receptors) [µM]	EC50 (human CB2 receptors) [nM]
CC(C)(NC(=O)c1ccc(Cl)c(OCC2CC2)n1)c1ncon1 [Example 83, 5-Chloro-6-cyclopropylmethoxy-pyridine-2-carboxylic acid (1-methyl-1-[1,2,4]oxadiazol-3-yl-ethyl)-amide]	> 10	347
CC(C)(NC(=O)c1ccc(C2CC2)c(OCC2CC2)n1)c1ncon1 [Example 73, 5-Cyclopropyl-6-cyclopropylmethoxy-pyridine-2-carboxylic acid (1-methyl-1-[1,2,4]oxadiazol-3-yl-ethyl)-amide]	1.32	40.7
NC(=O)[C@H](CC1CC1)NC(=O)c1ccc(C2CC2)c(Cc2ccc(F)cc2)n1 [Example 326, 5-Cyclopropyl-6-(4-fluoro-benzyl)-pyridine-2-carboxylic acid ((S)-1-carbamoyl-2-cyclopropyl-ethyl)-amide]	0.059	0.2
CNC(=O)[C@@H](NC(=O)c1ccc(C2CC2)c(OCC2CCCO2)n1)C(C)(C)C (stereo partly drawn) [Example 183, 5-Cyclopropyl-N-((S)-3,3-dimethyl-1-(methylamino)-1-oxobutan-2-yl)-6-((tetrahydrofuran-2-yl)methoxy)picolinamide]	0.102	4
O=C(N[C@@H](c1ccccn1)C(F)(F)F)c1ccc(C2CC2)c(OCC2CC2)n1 [Example 240, 5-Cyclopropyl-6-cyclopropylmethoxy-pyridine-2-carboxylic acid ((−)-2,2,2-trifluoro-1-pyridin-2-yl-ethyl)-amide]	> 10	66.1
COc1ccc(C(=O)NC(C)(C)c2ncco2)nc1-c1cccc(Cl)c1 [Example 90, 6-(3-Chloro-phenyl)-5-methoxy-pyridine-2-carboxylic acid (1-methyl-1-oxazol-2-yl-ethyl)-amide]	> 10	217
Cc1nc(C(C)(C)NC(=O)c2ccc(N3CC(F)(F)C3)c(OCC3CC3)n2)no1 [Example 102, 6-Cyclopropylmethoxy-5-(3,3-difluoro-azetidin-1-yl)-pyridine-2-carboxylic acid [1-methyl-1-(5-methyl-[1,2,4]oxadiazol-3-yl)-ethyl]-amide]	> 10	62.7
O=C(NN1CCCCC1)c1ccc(Cl)c(-c2cccc(Cl)c2)n1 [Example 66, 5-Chloro-6-(3-chloro-phenyl)-pyridine-2-carboxylic acid piperidin-1-ylamide]	> 10	216
CNC(=O)[C@H](CC(C)(C)C)NC(=O)c1ccc(C(F)(F)F)c(OCC2CCOCC2)n1 [Example 230, 6-(Tetrahydro-pyran-4-ylmethoxy)-5-trifluoromethyl-pyridine-2-carboxylic acid ((S)-3,3-dimethyl-1-methylcarbamoyl-butyl)-amide]	1.59	29.4
O=C(NN1CCCCC1)c1cccc(-c2cccc(Cl)c2)n1 [Example 11, 6-(3-Chloro-phenyl)-pyridine-2-carboxylic acid piperidin-1-ylamide]	> 10	63.6
CC(C)(NC(=O)c1ccc(C2CC2)c(OCC2CC2)n1)c1noc(N)n1 [Example 296, 5-Cyclopropyl-6-cyclopropylmethoxy-pyridine-2-carboxylic acid [1-(5-amino-[1,2,4]oxadiazol-3-yl)-1-methyl-ethyl]-amide]	> 10	60.8
CC(C)(C)OC(=O)N(CC1CC1)NC(=O)c1ccc(C2CC2)c(OCC2CC2)n1 [Example 363, N′-(5-Cyclopropyl-6-cyclopropylmethoxy-pyridine-2-carbonyl)-N-cyclopropylmethyl-hydrazinecarboxylic acid tert-butyl ester]	> 10	38
CC(C)C[C@H](NC(=O)c1ccc(C2CCCO2)c(OCC2CC2)n1)C(N)=O (stereo partly drawn) [Example 115, 6-Cyclopropylmethoxy-5-(tetrahydro-furan-2-yl)-pyridine-2-carboxylic acid ((S)-1-carbamoyl-3-methyl-butyl)-amide]	0.953	6.6
CNC(=O)[C@@H](NC(=O)c1cccc(-c2cccc(Cl)c2)n1)C(C)(C)C [Example 192, (S)-6-(3-Chlorophenyl)-N-(3,3-dimethyl-1-(methylamino)-1-oxobutan-2-yl)picolinamide]	1.54	64.2
O=C(NN1CCCCC1)c1cccc(C2CCCC2)n1 [Example 94, 6-Cyclopentyl-pyridine-2-carboxylic acid piperidin-1-ylamide]	> 10	129
CNC(=O)[C@@H](NC(=O)c1cccc(-c2ccccc2)n1)C(C)(C)C [Example 204, (S)-N-(3,3-Dimethyl-1-(methylamino)-1-oxobutan-2-yl)-6-phenylpicolinamide]	0.737	13.2
CCC(CC)(NC(=O)c1ccc(C2CC2)c(OCC2CC2)n1)C(=O)NC [Example 74, 5-Cyclopropyl-6-cyclopropylmethoxy-pyridine-2-carboxylic acid (1-ethyl-1-methylcarbamoyl-propyl)-amide]	> 10	8.9

Structure (SMILES)	EC50 (human CB1 receptors) [µM]	EC50 (human CB2 receptors) [nM]
C[C@@H](C#N)NC(=O)c1ccc(C2CC2)c(OCC2CC2)n1 [Example 246, 5-Cyclopropyl-6-cyclopropylmethoxy-pyridine-2-carboxylic acid ((−)-cyano-methyl-methyl)-amide]	2.47	215
Cc1nc([C@H](CC2CC2)NC(=O)c2cccc(-c3ccc(F)c(C(F)(F)F)c3)n2)no1 [Example 348, 6-(4-Fluoro-3-trifluoromethyl-phenyl)-pyridine-2-carboxylic acid [(S)-2-cyclopropyl-1-(5-methyl-[1,2,4]oxadiazol-3-yl)-ethyl]-amide]	> 10	24.6
NC(=O)[C@H](CC1CC1)NC(=O)c1ccc(N(CC(F)(F)F)CC(F)(F)F)c(OCC2CC2)n1 [Example 162, 5-[Bis-(2,2,2-trifluoro-ethyl)-amino]-6-cyclopropylmethoxy-pyridine-2-carboxylic acid ((S)-1-carbamoyl-2-cyclopropyl-ethyl)-amide]	0.674	54.4
Cc1nc(C(C)(C)NC(=O)c2ccc(C3CCCC3)c(-c3cccc(Cl)c3)n2)no1 [Example 106, 6-(3-Chloro-phenyl)-5-cyclopentyl-pyridine-2-carboxylic acid [1-methyl-1-(5-methyl-[1,2,4]oxadiazol-3-yl)-ethyl]-amide]	> 10	215
COC(=O)C1CCCCC1NC(=O)c1cccc(C2CCCCC2)n1 (stereo not drawn) [Example 92, 2-[(6-Cyclohexyl-pyridine-2-carbonyl)-amino]-cyclohexanecarboxylic acid methyl ester]	> 10	320
CNC(=O)C(C)(C)NC(=O)c1ccc(N2CC(F)(F)C2)c(OCC2CC2)n1 [Example 87, 6-Cyclopropylmethoxy-5-(3,3-difluoro-azetidin-1-yl)-pyridine-2-carboxylic acid (1-methyl-1-methylcarbamoyl-ethyl)-amide]	> 10	476
NC(=O)[C@H](CC1CC1)NC(=O)c1ccc(C(F)(F)F)c(OCC2CC2)n1 [Example 113, 6-Cyclopropylmethoxy-5-trifluoromethyl-pyridine-2-carboxylic acid ((S)-1-carbamoyl-2-cyclopropyl-ethyl)-amide]	> 10	200
CC(C)CC(C)(NC(=O)c1ccc(C2CC2)c(OCC2CC2)n1)C(N)=O (stereo not drawn) [Example 178, N-(1-Amino-2,4-dimethyl-1-oxopentan-2-yl)-5-cyclopropyl-6-(cyclopropylmethoxy)picolinamide]	> 10	42.2
Cc1nc([C@@H](NC(=O)c2cccc(-c3ccc(F)c(Cl)c3)n2)C2CC2)no1 [Example 260, 6-(3-Chloro-4-fluoro-phenyl)-pyridine-2-carboxylic acid [(−)-cyclopropyl-(5-methyl-[1,2,4]oxadiazol-3-yl)-methyl]-amide]	> 10	24.9
Cc1nc([C@@H](NC(=O)c2ccc(C3CC3)c(OCC3CC3)n2)C2CC2)no1 [Example 198, (+)-5-Cyclopropyl-6-cyclopropylmethoxy-pyridine-2-carboxylic acid [cyclopropyl-(5-methyl-[1,2,4]oxadiazol-3-yl)-methyl]-amide]	> 10	6.8
Cc1nc([C@H](NC(=O)c2cccc(-c3ccc(F)c(Cl)c3)n2)C2CC2)no1 [Example 261, 6-(3-Chloro-4-fluoro-phenyl)-pyridine-2-carboxylic acid [(+)-cyclopropyl-(5-methyl-[1,2,4]oxadiazol-3-yl)-methyl]-amide]	0.26	10.1
Cc1cc(C(C)(C)NC(=O)c2cccc(-c3cccc(Cl)c3)n2)on1 [Example 28, 6-(3-Chloro-phenyl)-pyridine-2-carboxylic acid [1-methyl-1-(3-methyl-isoxazol-5-yl)-ethyl]-amide]	> 10	564
Cc1nc(C(C)(C)NC(=O)c2ccc(C)c(-c3cccc(Cl)c3)n2)no1 [Example 51, 6-(3-Chloro-phenyl)-5-methyl-pyridine-2-carboxylic acid [1-methyl-1-(5-methyl-[1,2,4]oxadiazol-3-yl)-ethyl]-amide]	> 10	127
COCCOc1nc(C(=O)N[C@@H](CC(C)C)C(N)=O)ccc1C1CC1 [Example 142, 5-Cyclopropyl-6-(2-methoxy-ethoxy)-pyridine-2-carboxylic acid ((S)-1-carbamoyl-3-methyl-butyl)-amide]	> 10	14.4
O=C(c1ccc(N2CCCC2)c(OCC2CC2)n1)N1CCS(=O)(=O)CC1 [Example 15]	> 10	95.9
CNC(=O)[C@H](CC(C)(C)C)NC(=O)c1ccc(C2CC2)c(OCC2CC2)n1 [Example 182, (S)-5-Cyclopropyl-6-(cyclopropylmethoxy)-N-(4,4-dimethyl-1-(methylamino)-1-oxopentan-2-yl)picolinamide]	> 10	1.7
